As usually defined, the IC50 is the concentration that inhibits the measured activity by half.

A short description of the test: PRMT5 Biochemical Assay: The assays were all performed in a buffer consisting of 20 mM Bicine (pH=7.6), 1 mM TCEP, 0.005% BSG, and 0.002% Tween20, prepared on the day of use. Compounds in 100% DMSO (1 ul) were spotted into a polypropylene 384-well V-bottom plates (Greiner) using a Platemate Plus outfitted with a 384-channel head (Thermo Scientific). DMSO (1 ul) was added to Columns 11, 12, 23, 24, rows A-H for the maximum signal control and 1 ul of SAH, a known product and inhibitor of PRMT5/MEP50, was added to columns 11, 12, 23, 24, rows I-P for the minimum signal control. A cocktail (40 ul) containing the PRMT5/MEP50 enzyme and the peptide was added by Multidrop Combi (Thermo-Fisher). The compounds were allowed to incubate with PRMT5/MEP50 for 30 min at 25 degrees Celsius, then a cocktail (10 ul) containing 3H-SAM was added to initiate the reaction (final volume=51 ul). The final concentrations of the components were as follows: PRMT5/MEP50 was 4 nM, 3H-SAM was 75 nM, peptide was 40 nM, SAH in the minimum signal control wells was 100 uM, and the DMSO concentration was 1%. The assays were stopped by the addition of non-radioactive SAM (10 ul) to a final concentration of 600 uM, which dilutes the 3H-SAM to a level where its incorporation into the peptide substrate is no longer detectable. […].

With `C[C@H](Oc1cccc2cccnc12)C(=O)NC[C@@H](O)CN1Cc2ccccc2C1`, the IC50 result is “in the range around 0.55 µM”.

Values taken from ChEMBL document CHEMBL5725862, “PRMT5 inhibitors and uses thereof” (2018).
